Measurements taken from ChEMBL document CHEMBL3632570, “Structure-Guided Design of Novel l-Cysteine Derivatives as Potent KSP Inhibitors” (ACS Med Chem Lett, 2015).
Calls of active or inactive are those of the source. The calls are words filed in the database; no cut-off is given here.

Tests used:
[1] = tested on: HCT-116; assay: Antitumor activity against human HCT116 cells xenografted in athymic nude BALB/cAJcL mouse assessed as inhibition of tumor growth at 25 mg/kg, iv administered on days 1,3,5,8,10 and 12 measured on day 15; format: functional
[2] = tested on: HCT-116; assay: Growth inhibition of human HCT116 cells after 72 hrs by MTS assay; format: functional, cell-based; conditions: HCT-116, 72 h
[3] = molecular target: T1, Kinesin-like protein KIF22 (Homo sapiens) (UniProt Q14807); assay: Inhibition of microtubule-stimulated Kid motor domain (1 to 336) (unknown origin) ATPase activity at 6.3 uM
T1 sequence (whole entry): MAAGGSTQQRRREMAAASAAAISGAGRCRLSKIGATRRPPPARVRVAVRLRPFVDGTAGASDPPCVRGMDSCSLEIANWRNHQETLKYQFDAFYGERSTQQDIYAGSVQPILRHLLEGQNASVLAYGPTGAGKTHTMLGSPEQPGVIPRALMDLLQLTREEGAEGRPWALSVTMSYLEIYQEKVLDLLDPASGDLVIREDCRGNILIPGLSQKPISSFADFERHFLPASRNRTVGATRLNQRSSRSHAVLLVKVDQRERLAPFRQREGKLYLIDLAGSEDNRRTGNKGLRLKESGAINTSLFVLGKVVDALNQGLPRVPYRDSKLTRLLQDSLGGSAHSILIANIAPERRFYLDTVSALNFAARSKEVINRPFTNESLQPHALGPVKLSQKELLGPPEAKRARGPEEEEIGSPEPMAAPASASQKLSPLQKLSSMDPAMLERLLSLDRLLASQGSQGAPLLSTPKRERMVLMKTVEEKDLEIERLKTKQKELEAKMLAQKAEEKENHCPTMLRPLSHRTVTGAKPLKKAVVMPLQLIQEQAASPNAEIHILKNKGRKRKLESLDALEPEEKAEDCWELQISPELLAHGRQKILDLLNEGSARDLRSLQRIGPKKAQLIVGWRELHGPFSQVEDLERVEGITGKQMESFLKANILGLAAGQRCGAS

[4] = molecular target: T2, Chromosome-associated kinesin KIF4A (Homo sapiens) (UniProt O95239); assay: Inhibition of microtubule-stimulated KIF4A motor domain (1 to 346) (unknown origin) ATPase activity at 6.3 uM
T2 sequence (whole entry): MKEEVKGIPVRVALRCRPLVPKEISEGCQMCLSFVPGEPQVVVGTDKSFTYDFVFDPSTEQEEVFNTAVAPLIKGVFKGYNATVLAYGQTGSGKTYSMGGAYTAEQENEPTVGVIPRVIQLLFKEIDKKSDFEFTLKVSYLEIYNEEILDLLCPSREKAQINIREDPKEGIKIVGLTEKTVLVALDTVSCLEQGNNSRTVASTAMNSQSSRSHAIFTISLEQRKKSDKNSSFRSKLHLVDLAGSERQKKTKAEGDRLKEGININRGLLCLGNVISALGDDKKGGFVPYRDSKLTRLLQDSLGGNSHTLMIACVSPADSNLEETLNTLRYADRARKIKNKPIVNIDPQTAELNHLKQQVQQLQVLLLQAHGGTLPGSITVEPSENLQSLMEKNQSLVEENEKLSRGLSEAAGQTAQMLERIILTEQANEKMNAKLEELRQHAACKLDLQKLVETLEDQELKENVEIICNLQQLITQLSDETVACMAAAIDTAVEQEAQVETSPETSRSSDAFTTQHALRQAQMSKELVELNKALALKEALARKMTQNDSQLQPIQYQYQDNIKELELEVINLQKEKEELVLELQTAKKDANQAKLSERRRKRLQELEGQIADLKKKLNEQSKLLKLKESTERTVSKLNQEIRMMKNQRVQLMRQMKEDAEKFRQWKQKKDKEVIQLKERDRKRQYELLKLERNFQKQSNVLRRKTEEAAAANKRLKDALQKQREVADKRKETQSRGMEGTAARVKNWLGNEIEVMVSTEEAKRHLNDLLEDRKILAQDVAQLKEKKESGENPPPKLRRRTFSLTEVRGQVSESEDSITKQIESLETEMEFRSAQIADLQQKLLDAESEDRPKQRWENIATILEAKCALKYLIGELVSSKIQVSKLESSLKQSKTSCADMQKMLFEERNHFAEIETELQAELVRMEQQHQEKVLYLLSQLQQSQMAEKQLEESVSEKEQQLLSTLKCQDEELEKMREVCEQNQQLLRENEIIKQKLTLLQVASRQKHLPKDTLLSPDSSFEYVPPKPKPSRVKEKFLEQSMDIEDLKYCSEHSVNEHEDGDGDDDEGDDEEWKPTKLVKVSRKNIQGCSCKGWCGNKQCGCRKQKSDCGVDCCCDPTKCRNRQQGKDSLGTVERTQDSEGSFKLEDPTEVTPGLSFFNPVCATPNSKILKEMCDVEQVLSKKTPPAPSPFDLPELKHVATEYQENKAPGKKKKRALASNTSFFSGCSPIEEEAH

[5] = molecular target: T3, Kinesin-like protein KIFC3 (Homo sapiens) (UniProt Q9BVG8); assay: Inhibition of microtubule-stimulated KIFC3 motor domain (303 to 638) (unknown origin) ATPase activity at 6.3 uM
T3 sequence (whole entry): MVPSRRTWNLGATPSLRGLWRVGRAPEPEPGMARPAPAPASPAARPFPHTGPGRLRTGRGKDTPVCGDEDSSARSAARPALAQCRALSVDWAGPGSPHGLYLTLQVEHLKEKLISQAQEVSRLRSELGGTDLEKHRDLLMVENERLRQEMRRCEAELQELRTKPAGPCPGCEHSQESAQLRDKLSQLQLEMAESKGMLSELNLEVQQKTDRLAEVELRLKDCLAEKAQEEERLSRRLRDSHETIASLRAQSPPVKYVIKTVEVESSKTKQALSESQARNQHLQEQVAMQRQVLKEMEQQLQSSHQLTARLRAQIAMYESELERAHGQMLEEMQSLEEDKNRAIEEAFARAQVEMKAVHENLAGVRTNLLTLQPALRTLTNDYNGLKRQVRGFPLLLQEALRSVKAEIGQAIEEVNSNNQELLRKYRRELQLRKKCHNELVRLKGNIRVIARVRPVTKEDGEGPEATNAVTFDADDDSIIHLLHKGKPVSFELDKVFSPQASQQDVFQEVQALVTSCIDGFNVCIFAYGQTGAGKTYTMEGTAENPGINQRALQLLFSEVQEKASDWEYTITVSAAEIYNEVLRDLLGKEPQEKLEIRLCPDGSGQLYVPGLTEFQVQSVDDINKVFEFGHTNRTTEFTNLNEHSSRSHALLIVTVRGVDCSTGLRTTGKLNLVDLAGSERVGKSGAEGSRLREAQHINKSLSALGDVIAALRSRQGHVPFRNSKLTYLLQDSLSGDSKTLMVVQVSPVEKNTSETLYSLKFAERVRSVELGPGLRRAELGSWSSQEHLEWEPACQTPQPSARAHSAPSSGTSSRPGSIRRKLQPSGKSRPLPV

[6] = tested on: Mus musculus; assay: Toxicity in athymic nude BALB/cAJcL mouse xenografted with HCT116 cells assessed as body weight loss at 25 mg/kg, iv administered on days 1,3,5,8,10 and 12 relative to vehicle-treated control; format: organism-based, HCT-116; conditions: in vivo

SMILES | T/C [1] | IC50 [2] | inhibition [3] | inhibition [4] | inhibition [5] | Activity [6]
N[C@@H](CSC1(c2ccc(C(F)(F)F)cc2)c2ccccc2CCc2ccccc21)C(=O)O | 21% | 11 nM | inactive | inactive | inactive | Toxic
COc1ccc(C2(SC[C@H](N)C(=O)O)c3ccccc3CCc3ccccc32)cc1 | 26% | 28 nM | inactive | inactive | inactive | Toxic
